# In patent US20230145823A1 (priority 2020, published 2023):
# Read-outs that look alike come from different tables or passages of the source.
# Experiments:
# [1] = tested on: TNF-α; assay: LPS-induced TNF-α production from SIM-A9 cells, ELISA; format: cell-based; conditions: SIM-A9 cells stimulated with LPS
# Protocol: (§1) Cytokines were quantified using ELISA kits following the manufacturer's instructions. Briefly, the high-binding plates were coated at 100 μL/well with diluted capture antibodies (1:250) at 4° C. overnight. The coated plates were then blocked with the diluent for 1 h before assay. Each sample was diluted accordingly and added to the plates for a 2 h incubation period at room temperature. Plates were then washed with 250 μL/well PBS with 0.05% Tween-20 and incubated with detection antibodies (1:250 in assay diluent) for 1 h at room temperature. After another washing step, 1:250 diluted avidin-HRP (horseradish peroxidase) was added and incubated for 30 min. Next, 100 μL TMB-substrate (3,3′,5,5′-tetramethylbenzidine) was added and the plate was incubated in the dark until the signal was sufficiently developed. […]. Absorbance was measured at 450 nm with a correction of 570 nm using a plate reader.
# (§2) SIM-A9 (ATCC) cells were maintained in Dulbecco's modified eagle medium: nutrient mixture F-12 (DMEM-F12) with 10% foetal bovine serum, 5% horse-serum and antibiotic-antimycotic. SIM-A9 cells were seeded 24 h before the experiment. Culturing medium was replaced with DMEM-F12 medium containing 5% FBS+2.5% horse serum with required LPS concentration (final volume was one mL/well). The conditioned media and lysates were harvested for cytokine and cell marker examination.
# . […]
# [2] = tested on: IL-6; assay: LPS-induced IL-6 production from SIM-A9 cells, ELISA; format: cell-based; conditions: SIM-A9 cells stimulated with LPS
# Protocol: as §1, §2
# . […]
# [3] = tested on: arginase; assay: Arginase in conditioned medium of differentiated THP-1 cells, Multiplex assay using flow cytometry; format: cell-based; conditions: LPS and IFNγ, 48 h
# Protocol: (§3) THP-1 cells (ATCC) were maintained in RPMI 1,640 medium supplemented with 2-mercaptoethanol at a final concentration of 0.05 mM and FBS at a final concentration of 10%. THP-1 cells were seeded in each well of a 12-well tissue culture plate at a density 0.5×10^6 cells/mL, one day before experiments. THP-1 monocytes were differentiated by 150 nM PMA (phorbol 12-myristate 13-acetate) for 24 h.
# (§4) . The levels of anti-inflammatory cytokines from the conditioned medium of differentiated THP-1 cells were measured after 48 h of stimulation with LPS and IFNγ by Multiplex assay using flow cytometry. […]
# [4] = tested on: pro-IL-1β; assay: pro-IL-1β expression in differentiated THP-1 macrophages, Western blot; format: cell-based; conditions: PMA-differentiated THP-1 cells, LPS/IFNγ, 48 h
# Protocol: as §3
# Cells were washed twice with ice-cold PBS and harvested in RIPA buffer supplemented with a protease inhibitor cocktail. The whole-cell extracts were then centrifuged at 22,000×g for 20 min at 4° C. to remove cell debris. Protein concentrations were quantified using a Micro BCA protein assay kit. The absorbance was measured at 595 nm using a microplate reader. Equal amounts of cellular protein were separated by sodium dodecyl sulfate-polyacrylamide gel electrophoresis (SDS-PAGE) and transferred onto polyvinylidene difluoride (PVDF) membranes at 100 V for 90 min. The SDS-PAGE was performed with 10% polyacrylamide gel for iNOS and 12.5% for pro-IL-1β. The membranes were blocked for 1 h in Tris-buffered saline (TBS), pH 7.4, with 0.1% Tween-20 (TBS-T) containing 10% skim milk. […]
# [5] = previous studies; cited from earlier work
# [6] = tested on: NO; format: cell-based; conditions: RAW264.7 cells, LPS, 25 μM furosemide, 24 h
# [7] = tested on: IL-4; assay: IL-4 in conditioned medium of differentiated THP-1 cells, Multiplex assay using flow cytometry; format: cell-based; conditions: LPS and IFNγ, 48 h
# Protocol: as §3, §4
# [8] = tested on: TLR4; assay: LPS-induced TLR4 expression in RAW264.7 macrophage cells, flow cytometry; format: cell-based; conditions: RAW264.7 cells stimulated with LPS
# Protocol: RAW264.7 cells were purchased from ATCC and maintained in Dulbecco's Modified Eagle's Medium (DMEM) containing foetal bovine serum (FBS) at a final concentration of 10%. RAW264.7 cells were seeded in 12-well plates at 0.25×10^6 cells/well seeding density, one day before experiments. […]; conditioned media and lysates were harvested for analysis.
# Cells were harvested and re-suspended with staining buffer. Cells were stained with antibody (1:100) by incubating at 4° C. for 30 min in the dark. Stained cells were centrifuged, and the supernatant was discarded. The cell pellets were then re-suspended in cell flow buffer, transferred to FACS tubes and analyzed by flow cytometry within 48 h. To all cells in the experiment, Fc blocker was added.
# LPS is recognized by the cell surface pattern-recognition receptors such as the toll-like receptor 4 protein (TLR4) and triggers downstream signaling pathways. LPS induces expression of the pro-inflammatory cytokine IFNγ. IFNγ is known to increase TLR4 expression which may then promote the response to LPS stimulation. […]
# [9] = cited from earlier work
# [10] = tested on: inducible nitric oxide synthase (iNOS); conditions: RAW264.7, LPS+IFNγ, 25 μM furosemide, 24 h
# Protocol: Cells were washed twice with ice-cold PBS and harvested in RIPA buffer supplemented with a protease inhibitor cocktail. The whole-cell extracts were then centrifuged at 22,000×g for 20 min at 4° C. to remove cell debris. Protein concentrations were quantified using a Micro BCA protein assay kit. The absorbance was measured at 595 nm using a microplate reader. Equal amounts of cellular protein were separated by sodium dodecyl sulfate-polyacrylamide gel electrophoresis (SDS-PAGE) and transferred onto polyvinylidene difluoride (PVDF) membranes at 100 V for 90 min. The SDS-PAGE was performed with 10% polyacrylamide gel for iNOS and 12.5% for pro-IL-1β. The membranes were blocked for 1 h in Tris-buffered saline (TBS), pH 7.4, with 0.1% Tween-20 (TBS-T) containing 10% skim milk. The membrane blot was then incubated overnight at 4° C. with primary antibodies against iNOS (1:1,000), IL-1(3 (1:1,000), actin (1:5,000) and GAPDH (1:5,000) in TBS-T containing 5% skim milk. The membrane was washed with TBS-T 3×10 mins and incubated with goat anti-rabbit IgG-horseradish peroxidase (1:5,000) for 1 hour. After the washing step, the immunoblotting was visualized by chemiluminescence HRP-substrate.
# [11] = tested on: TNF-α; format: cell-based; conditions: RAW264.7 cells, LPS, 25 μM furosemide, 24 h
# [12] = tested on: NO; assay: LPS-induced NO production from SIM-A9 cells, Griess assay; format: cell-based; conditions: SIM-A9 cells stimulated with LPS
# Protocol: Nitric oxide production from the conditioned media of RAW264.7 and SIM-A9 cell cultures was examined by a Griess assay. Conditioned medium and sulfanilamide were mixed in a microwell plate to form a transient diazonium salt. Then, N-naphtyl-ethylenediamine was added to all wells to form a stable azo compound by incubating for 5-10 min in the dark at room temperature. The absorbance was measured between 520 nm and 550 nm. The concentration of NO production was quantified by being plotted against a standard curve.
# as §2
# . IL-1β plays a key role in modulating inflammatory response as a downstream pro-inflammatory marker of the TLR4 signaling pathway by using differentiated THP-1 monocytes. The expression of IL-1β precursor protein (pro-IL-1β) from THP-1 macrophage cells was studied using Western blot analysis. […]. […]
# [13] = cited from earlier work; remark: listed apart in the source
# [14] = tested on: interleukin-1 receptor antagonist (IL-1RA); assay: IL-1RA in conditioned medium of differentiated THP-1 cells, Multiplex assay using flow cytometry; format: cell-based; conditions: LPS and IFNγ, 48 h
# Protocol: as §3
# The levels of anti-inflammatory cytokines from the conditioned medium of differentiated THP-1 cells were measured after 48 h of stimulation with LPS and IFNγ by Multiplex assay using flow cytometry.
# [15] = tested on: COVID-19; conditions: cited from earlier work
# [16] = Grogono et al. 2018, nebulized 40 mg in 4 mL 0.9% saline, healthy adults, multiple dosing per day
# [17] = 21 patients with severe COVID-19, within a few days
# [18] = 21 patients with severe COVID-19
compound,measurement,setting,value
"NS(=O)(=O)c1cc(C(=O)O)c(NCc2ccco2)cc1Cl [furosemide, 4-chloro-N-furfuryl-5-sulfamoylanthranilic acid]",production of TNF-α,[1],significantly reduced
same,production of IL-6,[2],significantly reduced
same,expression of arginase,[3],induces
same,expression of pro-IL-1β,[4],significantly decreases
same,time to be shuttled from the lung and excreted,[5],4 to 6 h
same,production of NO,[6],significantly decreased
same,production of NO,[6]; listed as Furosemide,decreases
same,expression of IL-4,[7],induces
same,LPS-induced TLR4 expression (TLR4+ cell population),[8],completely blocked
same,LPS-induced TLR4 expression (TLR4+ cell population),[8]; listed as Furosemide,significantly decreases
same,relief of experimentally induced air hunger,[9]; [16],effective relief
same,untoward effects,[9]; [16],no untoward effects
same,dose shown safe by inhalation,"[9]; inhalation, previous studies",up to 120 mg per dose
same,"lung IL-6, IL-8, and TNF-α levels","[9]; inhaled furosemide, patients with respiratory conditions",reduction
same,urge to urinate,[9]; patients receiving inhaled furosemide up to 40 mg,no increase
same,expression of iNOS,[10],suppress
same,production of TNF-α,[11],significantly decreased
same,production of TNF-α,[11]; listed as Furosemide,decreases
same,production of NO,[12],significantly reduced
same,solution concentration achievable,"[13]; non-salt furosemide, aqueous isotonic saline, pH between 8.0 and 9.3",10 mg/mL
same,solution concentration achievable,[13]; weakly basic buffer solution (pH 8),10 mg/mL
same,expression of IL-1RA,[14],induces
"tocilizumab: Roche's tocilizumab (Actemra), an IL-6 inhibitor",all other symptoms,[15]; [17],improved remarkably
same,fevers,[15]; [17],returned to normal
same,adverse reactions,[15]; [18],no obvious adverse reactions
same,patients who lowered their oxygen intake,[15]; [18],75%
same,average time to discharge following treatment,[15]; nineteen discharged patients,13.5 days
